# Assay results reported in publication PMC8464850, “Sulfonium Ligands of the α7 nAChR” (Molecules, 2021).
# Assays:
# α7 nAChR [1] = target: T1, α7 nAChR (Homo sapiens, UniProt P36544); test: α7 responses on co-application with the type II PAM TQS (silent agonism); assay type: cell-based
# T1 construct: expressed in transfected cells; host or cells: Xenopus laevis oocytes (injected RNA)
# Method: (§1) Compounds were co-applied at a concentration of 100 µM with 30 µM racemic TQS (Figure 3A). All compounds except S4, S5, and S8 gave large responses when co-applied with TQS, consistent with silent agonism of α7 (see Table S1 for ANOVA). Active compounds were also evaluated across a range of concentrations with the alternative PAM, PNU-120596 (Figure 3B). The curve-fit values for Imax (Table 1) should be taken only as approximation of the relative efficacies of the compounds, due to the large variability frequently observed in PNU-120596-potentiated responses, as evidenced by the large SEMs of the responses obtained with high concentrations.
# (§2) Figure 3 Responses of α7 nAChR to sulfonium compounds coapplied with PAMs. (A) Potentiation of α7 responses with 30 µM racemic TQS. Shown are the average net-charge responses of seven or eight oocytes ± SEM. (B) Concentration-response studies of peak currents generated by compounds that gave positive responses with TQS, coapplied with 10 µM PNU-120596. Each point represents the average (±SEM) of at least four oocytes.
# The human nAChR clones were obtained from Jon Lindstrom (University of Pennsylvania, Philadelphia, PA, USA). Mouse muscle subunit clones were obtained from Jim Boulter (Salk Institute, La Jolla, CA, USA) and Paul Gardner (Dartmouth, Hanover, NH, USA). The human resistance-to-cholinesterase 3 (RIC3) clone was obtained from Millet Treinin (Hebrew University, Jerusalem, Israel) and co-injected with α7 to improve the level and speed of α7 receptor expression without affecting the pharmacological properties of the receptors. Subsequent to linearization and purification of the plasmid DNAs, RNAs were prepared using the mMessage mMachine in vitro RNA transcription kit (Ambion, Austin, TX, USA).
# (§3) Experiments were conducted using OpusXpress 6000A (Molecular Devices, Union City, CA, USA). Both the voltage and current electrodes were filled with 3 M KCl. Oocytes were voltage-clamped at −60 mV at room temperature (24 °C). The oocytes were bath-perfused with Ringer’s solution (115 mM NaCl, 2.5 mM KCl, 1.8 mM CaCl2, 10 mM HEPES, and 1 μM atropine, pH 7.2) at 2 mL/min for α7 receptors, or 4 mL/min for heteromeric nAChR. To evaluate the effects of experimental compounds, responses were compared to control ACh-evoked responses, defined as the average of two initial applications of ACh made before test applications. ACh control concentrations were 60 µM for α7 receptors; 100 µM for α4(3)β2(2) and α3β4 receptors; 30 µM for α4β2α6β2β3 and muscle-type (αβ1εδ) receptors; and 10 µM for α4(3)β2(2) and α4(2)β2(2)α5 receptors.
# (§4) Solutions were applied from 96-well plates via disposable tips. Drug applications were 12 s in duration, followed by 181 s washout periods for α7 receptors, or 6 s in duration followed by 301 s washout periods for heteromeric nAChR. The responses were calculated as both peak current amplitudes and net charge, as previously described. Data were collected at 50 Hz, filtered at 20 Hz for α7 receptors or filtered at 5 Hz for heteromeric nAChR, and analyzed by Clampfit (Molecular Devices, San Jose, CA, USA) and Excel (Microsoft, Redmond, WA, USA). Data were expressed as means ± SEM from at least four oocytes for each experiment and plotted with Kaleidagraph 4.5.2 (Abelbeck Software, Reading, PA, USA). Multi-cell averages were calculated for comparisons of complex responses. Averages of the normalized data were calculated for each of the 10,322 points in each of the 206.44 s traces (acquired at 50 Hz), as well as the standard errors for those averages.
# α7 nAChR [2] = target: T1, α7 nAChR; test: α7 concentration-response on co-application with 10 µM PNU-120596; assay type: cell-based; settings: peak currents, co-applied with 10 µM PNU-120596, Hill fit
# Method: as §1, §2, §3, §4
# α7 nAChR [3] = target: T1, α7 nAChR; test: Inhibition of α7 ACh-evoked responses; assay type: cell-based
# Method: Figure 4 Effects sulfonium compounds on α7 ACh-evoked net-charge responses. (A) Effects of the sulfonium compounds at 100 µM co-applied with 60 µM relative to responses to 60 µM ACh applied alone. Data are the averages (±SEM) from seven or eight cells under each condition. (B) Effects of select sulfonium compounds at 1 mM co-applied with 60 µM relative to responses to 60 µM ACh applied alone. Data are the averages (±SEM) from seven or eight cells under each condition. Statistical significance was determined by pairwise t-test with p values corrected for multiple comparisons; * p < 0.05, ** p < 0.001.
# The sulfonium compounds that were active with TQS but produced little inhibition of ACh response at a concentration of 100 µM were tested as inhibitors of ACh response at a concentration of 1 mM (Figure 4B).
# We tested S8 across a range of concentrations for its ability to inhibit 60 µM ACh responses (Figure 5A). Note that we use 60 µM as an ACh control because this concentration gives nearly maximal (93%) net-charge responses, with the time course of the responses roughly following the speed of solution exchange. […] We tested whether inhibition of α7 responses by S8 was surmountable by increasing ACh concentration, consistent with a competitive mechanism of inhibition. However, since α7 responses to concentrations of ACh greater than 60 µM occur more rapidly than solution exchange in the chamber, we first pre-applied 5 µM S8 prior to the co-application of 5 µM S8 with either 60 µM or 1 mM ACh (Figure 5B). The 60 µM net-charge responses were reduced to 28 ± 2% of controls (n = 8) and 60 µM peak currents to 21 ± 3 % controls. The 1 mM net-charge responses were reduced to 56 ± 6 % of those obtained without S8 co-application, although the S8 co-application increased the peak-current amplitudes compared to 60 µM controls from 1.78 ± 0.15 to 3.72 ± 0.81 (n = 8).
# Figure 5 Inhibition of α7 ACh-evoked responses by S8. (A) Concentration-response studies of α7 net-charge responses to 60 µM ACh co-applied with increasing concentrations of S8. To confirm the stability of the ACh responses, applications of ACh plus S8 were alternated with applications of ACh alone. Data are the averages of eight cells (±SEM). See text for curve-fit values. (B) Effects of 5 µM S8 on responses to either 60 µM or 1 mM ACh. The traces shown across the top are the averaged raw data from seven cells, each normalized to the peak current of the first ACh control response shown. In order to assure that the S8 was present at 5 µM throughout the ACh-evoked responses, a 30 s pre-application was made of 5 µM S8 alone. The lower traces show averaged responses to 60 µM or 1 mM ACh alone or with the 5 µM S8 pre- and co-application. The details of the data are described in Methods.
# as §3
# Solutions were applied from 96-well plates via disposable tips. Drug applications were 12 s in duration, followed by 181 s washout periods for α7 receptors, or 6 s in duration followed by 301 s washout periods for heteromeric nAChR. […]
# α3β4 nAChR = target: T2, α3β4 nAChR (Homo sapiens, UniProt P30926+P32297); test: Inhibition of α3β4 100 µM ACh-evoked peak currents; assay type: cell-based
# T2 construct: expressed in transfected cells; host or cells: Xenopus laevis oocytes (injected RNA)
# Method: Although none of the other sulfonium compounds activated neuronal heteromeric receptors, several of them produced inhibition of ACh-evoked responses. Shown in Figure 7A are concentration-response studies for the compounds that were active antagonists of α3β4 nAChR (Table 3). Some compounds were also tested as antagonists of α4β2 subtypes formed with concatamers (Figure 7B).
# Figure 7 Inhibition of heteromeric nAChR by sulfonium compounds. (A) Inhibition of α3β4 100 µM ACh-evoked peak currents by the co-application of the sulfonium compounds. Data are the averaged of six to eight oocytes (±SEM). To confirm the stability of the ACh responses, applications of ACh plus the sulfonium compounds were alternated with applications of ACh alone. (B) Inhibition of ACh control peak-current responses of α4-containing nAChR formed with concatamers by 100 µM of the sulfonium compounds indicated. Data are the average of six to eight oocytes (±SEM).
# as §3, §4
# ganglionic (α3β4) nAChR = system: ganglionic (α3β4) nAChR; design: method as in earlier work; settings: 100 µM suplatast; ref 29 (Zhou et al.); cited from earlier work
# [4] = design: method as in PMID 11456386; settings: cited from earlier work
# human α7 receptors = target: T3, human α7 receptors (Homo sapiens, UniProt P36544); design: method as in PMID 12183330; settings: 60 µM ACh; cited from earlier work
# T3 construct: expressed in transfected cells; host or cells: Xenopus laevis oocytes (injected RNA)
# [5] = general knowledge, no reference given; cited from earlier work
# [6] = target: T4, muscle-type (α1β1εδ) receptors (Mus musculus, UniProt P02716+P04756+P20782); settings: cited from earlier work
# T4 construct: expressed in transfected cells; host or cells: Xenopus laevis oocytes (injected RNA)
# T4 sequence (P04756 21-457): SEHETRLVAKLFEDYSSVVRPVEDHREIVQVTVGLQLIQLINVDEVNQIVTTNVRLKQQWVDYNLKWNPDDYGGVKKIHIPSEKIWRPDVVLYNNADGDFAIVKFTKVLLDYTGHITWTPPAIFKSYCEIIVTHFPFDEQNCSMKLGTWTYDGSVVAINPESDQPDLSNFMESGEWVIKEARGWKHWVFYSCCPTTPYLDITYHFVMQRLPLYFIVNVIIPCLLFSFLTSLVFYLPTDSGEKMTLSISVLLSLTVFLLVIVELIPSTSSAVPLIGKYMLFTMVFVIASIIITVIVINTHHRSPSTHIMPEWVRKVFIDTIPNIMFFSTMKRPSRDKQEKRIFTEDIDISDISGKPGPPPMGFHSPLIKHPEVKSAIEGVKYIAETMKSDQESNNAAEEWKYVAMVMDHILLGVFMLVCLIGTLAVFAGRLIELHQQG
# T4 sequence (P09690 24-501 partner): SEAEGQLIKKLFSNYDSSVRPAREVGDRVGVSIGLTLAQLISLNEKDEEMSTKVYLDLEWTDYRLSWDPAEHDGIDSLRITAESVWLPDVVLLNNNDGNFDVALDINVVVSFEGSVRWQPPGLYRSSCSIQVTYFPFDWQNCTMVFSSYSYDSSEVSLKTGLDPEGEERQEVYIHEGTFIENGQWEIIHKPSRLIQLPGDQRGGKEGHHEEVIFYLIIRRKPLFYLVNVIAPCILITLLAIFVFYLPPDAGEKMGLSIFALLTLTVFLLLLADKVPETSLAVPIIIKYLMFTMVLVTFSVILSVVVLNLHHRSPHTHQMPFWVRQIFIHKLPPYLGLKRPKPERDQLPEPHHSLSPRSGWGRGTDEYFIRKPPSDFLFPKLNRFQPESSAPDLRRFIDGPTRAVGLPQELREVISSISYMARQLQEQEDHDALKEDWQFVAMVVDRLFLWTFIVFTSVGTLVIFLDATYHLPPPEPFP
# T4 sequence (P20782 21-493): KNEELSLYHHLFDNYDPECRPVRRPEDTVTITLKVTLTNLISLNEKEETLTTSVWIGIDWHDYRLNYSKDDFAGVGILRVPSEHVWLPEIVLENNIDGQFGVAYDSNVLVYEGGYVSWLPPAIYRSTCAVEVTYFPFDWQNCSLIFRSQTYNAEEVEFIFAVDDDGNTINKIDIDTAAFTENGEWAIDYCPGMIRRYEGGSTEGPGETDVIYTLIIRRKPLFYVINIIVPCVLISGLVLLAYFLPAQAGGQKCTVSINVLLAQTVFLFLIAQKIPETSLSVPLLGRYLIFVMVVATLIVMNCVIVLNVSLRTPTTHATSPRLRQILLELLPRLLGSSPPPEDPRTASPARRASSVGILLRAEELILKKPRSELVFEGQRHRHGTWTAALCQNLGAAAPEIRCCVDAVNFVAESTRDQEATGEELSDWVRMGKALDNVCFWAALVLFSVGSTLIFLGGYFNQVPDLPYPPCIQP
# T4 sequence (P02716 25-520): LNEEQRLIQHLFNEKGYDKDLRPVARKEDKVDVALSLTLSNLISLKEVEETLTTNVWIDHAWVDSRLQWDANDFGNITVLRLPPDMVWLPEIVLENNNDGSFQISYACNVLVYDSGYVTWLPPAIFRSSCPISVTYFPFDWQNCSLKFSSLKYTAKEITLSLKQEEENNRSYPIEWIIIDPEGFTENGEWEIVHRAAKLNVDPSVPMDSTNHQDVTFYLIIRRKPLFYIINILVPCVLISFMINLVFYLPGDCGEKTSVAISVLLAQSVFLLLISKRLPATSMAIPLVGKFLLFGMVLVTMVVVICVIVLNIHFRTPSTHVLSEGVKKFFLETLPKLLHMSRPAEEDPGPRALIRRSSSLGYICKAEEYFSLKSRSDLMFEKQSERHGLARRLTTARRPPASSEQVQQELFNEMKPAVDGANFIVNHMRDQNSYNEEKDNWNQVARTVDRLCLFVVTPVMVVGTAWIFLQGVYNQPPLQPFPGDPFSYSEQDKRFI
# T1 sequence (P36544 23-502): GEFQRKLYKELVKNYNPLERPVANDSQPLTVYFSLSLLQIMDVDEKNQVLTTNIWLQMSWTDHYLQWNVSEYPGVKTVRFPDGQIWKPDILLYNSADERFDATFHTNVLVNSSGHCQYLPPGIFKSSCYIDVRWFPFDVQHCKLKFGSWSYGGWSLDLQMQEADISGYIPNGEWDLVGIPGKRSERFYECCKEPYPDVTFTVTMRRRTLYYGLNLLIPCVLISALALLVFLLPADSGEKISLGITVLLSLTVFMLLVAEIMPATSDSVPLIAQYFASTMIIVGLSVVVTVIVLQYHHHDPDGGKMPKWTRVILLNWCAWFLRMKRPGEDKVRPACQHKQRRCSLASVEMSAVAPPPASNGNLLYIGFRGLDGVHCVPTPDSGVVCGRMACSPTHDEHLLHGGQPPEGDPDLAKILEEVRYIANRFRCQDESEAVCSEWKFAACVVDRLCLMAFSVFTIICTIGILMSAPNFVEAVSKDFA
# T2 sequence (P32297 32-505): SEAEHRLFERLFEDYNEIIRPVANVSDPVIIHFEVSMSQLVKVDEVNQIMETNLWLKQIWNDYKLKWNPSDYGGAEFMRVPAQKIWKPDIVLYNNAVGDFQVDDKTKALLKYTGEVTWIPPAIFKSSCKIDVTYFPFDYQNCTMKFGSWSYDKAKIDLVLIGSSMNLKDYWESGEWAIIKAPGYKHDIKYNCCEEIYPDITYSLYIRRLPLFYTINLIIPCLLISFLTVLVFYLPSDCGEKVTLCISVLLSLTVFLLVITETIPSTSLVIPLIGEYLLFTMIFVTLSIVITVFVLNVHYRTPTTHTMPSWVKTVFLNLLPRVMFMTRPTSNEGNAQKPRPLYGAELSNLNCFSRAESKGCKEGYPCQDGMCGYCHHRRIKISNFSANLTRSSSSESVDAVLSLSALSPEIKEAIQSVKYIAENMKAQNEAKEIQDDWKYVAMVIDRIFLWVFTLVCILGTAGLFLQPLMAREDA
# T2 sequence (P30926 22-498): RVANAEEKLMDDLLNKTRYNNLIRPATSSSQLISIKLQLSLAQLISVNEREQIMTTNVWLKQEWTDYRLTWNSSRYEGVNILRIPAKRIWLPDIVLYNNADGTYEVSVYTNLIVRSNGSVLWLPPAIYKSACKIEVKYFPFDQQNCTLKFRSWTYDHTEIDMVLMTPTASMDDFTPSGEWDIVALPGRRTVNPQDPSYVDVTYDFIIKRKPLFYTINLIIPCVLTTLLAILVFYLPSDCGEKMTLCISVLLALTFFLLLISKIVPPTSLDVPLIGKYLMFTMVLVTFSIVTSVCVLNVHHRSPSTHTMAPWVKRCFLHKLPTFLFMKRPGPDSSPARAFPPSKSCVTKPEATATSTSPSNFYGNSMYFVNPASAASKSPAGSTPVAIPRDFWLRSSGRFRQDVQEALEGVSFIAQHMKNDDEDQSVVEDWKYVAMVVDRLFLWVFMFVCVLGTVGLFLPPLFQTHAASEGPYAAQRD
# T3 sequence (P36544 23-502): as the sequence (P36544 23-502) above
smiles,measurement,setting,value
"CCOCC(O)COc1ccc(NC(=O)CC[S+](C)C)cc1.Cc1ccc(S(=O)(=O)[O-])cc1 (centres unmarked) [Compound S6, (3-((4-(3-ethoxy-2-hydroxypropoxy)phenyl)amino)-3-oxopropyl)dimethylsulfonium tosylate, reference compound]",relative activity as α7 silent agonist / desensitizer (rank order),"α7 nAChR [1]; 100 µM with 30 µM TQS, Figure 3A, listed as suplatast",most desensitizing
same,α7 functional classification (silent agonist / inactive),"α7 nAChR [1]; inactive alone, active with a PAM = silent agonist",silent agonist activity
same,IMax (PNU Activation),α7 nAChR [2]; approximation only,2.2 ± 0.3
same,EC50,α7 nAChR [2]; read-out: EC50 (PNU Activation),12.5 ± 4.9 µM
same,inhibition at 100 µM,"α7 nAChR [3]; compound co-applied at 100 µM, net charge, read-out: inhibition of responses to 60 µM ACh",~50%
same,surmountability of α3β4 inhibition by ACh,"α3β4 nAChR; 5 µM S6, 1 mM ACh vs 30 µM ACh, data not shown",not surmountable by increasing ACh concentration
same,IC50,"α3β4 nAChR; co-application with 100 µM ACh, peak currents",4.5 ± 0.6 µM
same,effect on ganglionic (α3β4) nAChR,ganglionic (α3β4) nAChR,channel block
same,distribution to the brain,[4],poor
same,oral bioavailability,[4],orally bioavailable
"CC(=O)OCC[N+](C)(C)C [ACh, Acetylcholine chloride, reference compound]",1 mM ACh peak-current amplitudes compared to 60 µM controls,"α7 nAChR [3]; 1 mM ACh without S8, n = 8",1.78 ± 0.15
same,net-charge response as share of maximal,human α7 receptors,93%
O=[N+]([O-])c1ccc(O)cc1 [para-nitrophenol],pKa for the phenolic hydroxyl,[5],~ 7
"C[N+](C)(C)C [TMA, tetramethylammonium ion]",activation of muscle-type receptors,[6],not an effective activator
